Assay results taken from ChEMBL document CHEMBL5579809, “Exploration of bromodomain ligand-linker conjugation sites for efficient CBP/p300 heterobifunctional degrader activity” (Bioorg Med Chem Lett, 2024).
Calls of active or inactive are those of the source. The rule behind the calls is not given here.

What was measured:
[1] = target: T1, Protein cereblon/Histone acetyltransferase p300 (Homo sapiens) (UniProt Q09472+Q96SW2); assay: PROTAC activity at CRBN/HiBiT-tagged p300 in human HAP1 cells assessed as total cumulative degradation by measuring AUC at 1000 nM measured over 24 hrs by luminescence based analysis; type: cell-based
[2] = target: T2, Protein cereblon/CREB-binding protein (Homo sapiens) (UniProt Q92793+Q96SW2); assay: PROTAC activity at CRBN/HiBiT-tagged CBP in human HAP1 cells assessed as total cumulative degradation by measuring AUC at 0.1 nM measured over 24 hrs by luminescence based analysis; type: cell-based
T2 sequence (Q92793 2-2442 limits assumed): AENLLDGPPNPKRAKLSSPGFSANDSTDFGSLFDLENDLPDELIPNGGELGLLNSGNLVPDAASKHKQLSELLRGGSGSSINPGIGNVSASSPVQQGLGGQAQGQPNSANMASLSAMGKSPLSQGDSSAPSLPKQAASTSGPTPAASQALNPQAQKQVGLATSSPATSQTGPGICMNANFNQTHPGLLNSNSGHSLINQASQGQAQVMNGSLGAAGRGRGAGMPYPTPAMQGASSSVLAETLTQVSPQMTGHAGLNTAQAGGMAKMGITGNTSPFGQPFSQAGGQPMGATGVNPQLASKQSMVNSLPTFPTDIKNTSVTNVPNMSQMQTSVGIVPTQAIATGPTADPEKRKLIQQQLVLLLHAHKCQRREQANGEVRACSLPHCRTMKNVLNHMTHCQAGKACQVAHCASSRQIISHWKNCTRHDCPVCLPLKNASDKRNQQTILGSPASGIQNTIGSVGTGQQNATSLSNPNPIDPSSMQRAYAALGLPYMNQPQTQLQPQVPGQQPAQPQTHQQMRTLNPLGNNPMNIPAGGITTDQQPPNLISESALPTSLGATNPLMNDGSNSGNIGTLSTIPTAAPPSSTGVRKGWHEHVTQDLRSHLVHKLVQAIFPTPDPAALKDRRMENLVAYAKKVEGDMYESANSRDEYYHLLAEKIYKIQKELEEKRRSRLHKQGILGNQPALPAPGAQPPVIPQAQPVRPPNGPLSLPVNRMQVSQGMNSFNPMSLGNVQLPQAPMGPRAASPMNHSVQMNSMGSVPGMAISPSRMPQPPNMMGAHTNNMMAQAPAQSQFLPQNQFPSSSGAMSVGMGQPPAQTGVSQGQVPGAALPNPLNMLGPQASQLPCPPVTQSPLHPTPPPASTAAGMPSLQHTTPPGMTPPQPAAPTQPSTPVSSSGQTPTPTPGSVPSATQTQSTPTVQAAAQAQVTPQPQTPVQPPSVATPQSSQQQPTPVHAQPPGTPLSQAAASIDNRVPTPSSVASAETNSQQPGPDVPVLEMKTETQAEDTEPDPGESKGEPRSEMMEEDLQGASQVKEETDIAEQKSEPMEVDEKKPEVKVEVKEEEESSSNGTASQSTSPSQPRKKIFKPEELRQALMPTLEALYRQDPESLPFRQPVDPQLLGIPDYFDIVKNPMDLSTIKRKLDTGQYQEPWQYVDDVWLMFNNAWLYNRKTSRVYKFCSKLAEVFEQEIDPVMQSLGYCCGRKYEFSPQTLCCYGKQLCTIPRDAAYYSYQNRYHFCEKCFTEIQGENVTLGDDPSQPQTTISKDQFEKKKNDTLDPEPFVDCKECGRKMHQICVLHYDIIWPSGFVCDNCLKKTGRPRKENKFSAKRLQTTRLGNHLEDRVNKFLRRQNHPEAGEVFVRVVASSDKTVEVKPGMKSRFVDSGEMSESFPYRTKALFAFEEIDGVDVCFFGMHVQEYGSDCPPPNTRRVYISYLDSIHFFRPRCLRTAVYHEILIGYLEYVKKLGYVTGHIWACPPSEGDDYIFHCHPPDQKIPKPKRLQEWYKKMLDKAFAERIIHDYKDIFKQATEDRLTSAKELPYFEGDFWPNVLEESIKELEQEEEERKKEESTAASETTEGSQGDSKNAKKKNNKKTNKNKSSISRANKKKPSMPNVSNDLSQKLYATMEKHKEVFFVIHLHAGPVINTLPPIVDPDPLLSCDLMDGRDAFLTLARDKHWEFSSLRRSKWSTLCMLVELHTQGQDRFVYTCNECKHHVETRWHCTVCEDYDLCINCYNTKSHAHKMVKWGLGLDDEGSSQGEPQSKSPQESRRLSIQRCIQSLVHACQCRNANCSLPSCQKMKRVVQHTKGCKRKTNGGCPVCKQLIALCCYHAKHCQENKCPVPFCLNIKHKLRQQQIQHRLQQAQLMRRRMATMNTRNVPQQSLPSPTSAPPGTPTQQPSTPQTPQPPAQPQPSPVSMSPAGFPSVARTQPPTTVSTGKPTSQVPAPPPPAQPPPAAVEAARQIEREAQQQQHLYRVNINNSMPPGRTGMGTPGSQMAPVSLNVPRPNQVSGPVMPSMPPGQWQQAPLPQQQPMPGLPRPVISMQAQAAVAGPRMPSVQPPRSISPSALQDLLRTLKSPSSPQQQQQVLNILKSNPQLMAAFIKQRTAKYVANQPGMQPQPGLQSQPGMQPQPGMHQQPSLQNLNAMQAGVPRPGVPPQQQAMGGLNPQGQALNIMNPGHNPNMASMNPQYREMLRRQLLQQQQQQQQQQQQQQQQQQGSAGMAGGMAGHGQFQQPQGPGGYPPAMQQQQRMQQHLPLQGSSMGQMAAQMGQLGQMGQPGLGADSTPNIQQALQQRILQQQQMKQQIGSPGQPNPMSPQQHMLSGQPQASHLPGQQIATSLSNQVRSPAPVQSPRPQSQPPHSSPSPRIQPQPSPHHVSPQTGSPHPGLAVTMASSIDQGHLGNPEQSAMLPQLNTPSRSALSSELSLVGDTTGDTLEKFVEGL
T2 sequence (Q96SW2 whole entry partner): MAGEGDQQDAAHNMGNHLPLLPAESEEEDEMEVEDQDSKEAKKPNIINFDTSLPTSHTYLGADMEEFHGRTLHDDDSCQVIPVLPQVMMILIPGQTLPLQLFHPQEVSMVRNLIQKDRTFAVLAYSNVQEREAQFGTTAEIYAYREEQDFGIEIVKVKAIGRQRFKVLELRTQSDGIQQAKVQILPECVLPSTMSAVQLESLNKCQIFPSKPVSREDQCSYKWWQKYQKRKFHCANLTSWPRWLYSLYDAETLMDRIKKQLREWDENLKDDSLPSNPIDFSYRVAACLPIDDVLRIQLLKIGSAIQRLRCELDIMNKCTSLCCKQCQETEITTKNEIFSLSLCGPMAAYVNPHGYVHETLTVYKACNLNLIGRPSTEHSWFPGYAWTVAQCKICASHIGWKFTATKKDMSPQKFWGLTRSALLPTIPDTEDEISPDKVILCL

[3] = target: T2, Protein cereblon/CREB-binding protein (Homo sapiens); assay: PROTAC activity at CRBN/HiBiT-tagged CBP in human HAP1 cells assessed as induction of CBP degradation by measuring degradation rate at 0.1 nM measured over 24 hrs by luminescence based analysis; type: cell-based
[4] = target: T2, Protein cereblon/CREB-binding protein (Homo sapiens); assay: PROTAC activity at CRBN/HiBiT-tagged CBP in human HAP1 cells assessed as total cumulative degradation by measuring AUC at 10 nM measured over 24 hrs by luminescence based analysis; type: cell-based
[5] = target: T1, Protein cereblon/Histone acetyltransferase p300 (Homo sapiens); assay: PROTAC activity at CRBN/HiBiT-tagged p300 in human HAP1 cells assessed as induction of p300 degradation by measuring degradation rate at 10 nM measured over 24 hrs by luminescence based analysis; type: cell-based
[6] = target: T2, Protein cereblon/CREB-binding protein (Homo sapiens); assay: PROTAC activity at CRBN/HiBiT-tagged CBP in human HAP1 cells assessed as total cumulative degradation by measuring AUC at 1 nM measured over 24 hrs by luminescence based analysis; type: cell-based
[7] = target: T2, Protein cereblon/CREB-binding protein (Homo sapiens); assay: PROTAC activity at CRBN/HiBiT-tagged CBP in human HAP1 cells assessed as total cumulative degradation by measuring AUC at 1000 nM measured over 24 hrs by luminescence based analysis; type: cell-based
[8] = target: T1, Protein cereblon/Histone acetyltransferase p300 (Homo sapiens); assay: PROTAC activity at CRBN/HiBiT-tagged p300 in human HAP1 cells assessed as total cumulative degradation by measuring AUC at 100 nM measured over 24 hrs by luminescence based analysis; type: cell-based
[9] = target: T2, Protein cereblon/CREB-binding protein (Homo sapiens); assay: PROTAC activity at CRBN/HiBiT-tagged CBP in human HAP1 cells assessed as induction of CBP degradation by measuring maximal efficacy at 100 nM measured over 24 hrs by luminescence based analysis relative to control; type: cell-based
[10] = target: T1, Protein cereblon/Histone acetyltransferase p300 (Homo sapiens); assay: PROTAC activity at CRBN/HiBiT-tagged p300 in human HAP1 cells assessed as induction of p300 degradation by measuring maximal efficacy at 1 nM measured over 24 hrs by luminescence based analysis relative to control; type: cell-based
[11] = target: T2, Protein cereblon/CREB-binding protein (Homo sapiens); assay: PROTAC activity at CRBN/HiBiT-tagged CBP in human HAP1 cells assessed as induction of CBP degradation by measuring degradation rate at 100 nM measured over 24 hrs by luminescence based analysis; type: cell-based
[12] = target: T1, Protein cereblon/Histone acetyltransferase p300 (Homo sapiens); assay: PROTAC activity at CRBN/HiBiT-tagged p300 in human HAP1 cells assessed as induction of p300 degradation by measuring degradation rate at 1 nM measured over 24 hrs by luminescence based analysis; type: cell-based
[13] = target: T1, Protein cereblon/Histone acetyltransferase p300 (Homo sapiens); assay: PROTAC activity at CRBN/HiBiT-tagged p300 in human HAP1 cells assessed as induction of p300 degradation by measuring degradation rate at 1000 nM measured over 24 hrs by luminescence based analysis; type: cell-based
[14] = target: T2, Protein cereblon/CREB-binding protein (Homo sapiens); assay: PROTAC activity at CRBN/HiBiT-tagged CBP in human HAP1 cells assessed as induction of CBP degradation by measuring degradation rate at 1 nM measured over 24 hrs by luminescence based analysis; type: cell-based
[15] = target: Protein cereblon/Bromodomain-containing protein 4 (Homo sapiens) (UniProt O60885+Q96SW2); assay: PROTAC activity at CRBN/HiBiT-tagged BRD4 in human HAP1 cells assessed as induction of BRD4 degradation measured over 24 hrs by luminescence based analysis; type: cell-based
Sequence of Protein cereblon/Bromodomain-containing protein 4 (Homo sapiens) (Q96SW2 whole entry, looked up, other chains not shown): as the sequence (Q96SW2 whole entry partner) above

[16] = target: T1, Protein cereblon/Histone acetyltransferase p300 (Homo sapiens); assay: PROTAC activity at CRBN/HiBiT-tagged p300 in human HAP1 cells assessed as induction of p300 degradation by measuring maximal efficacy at 1000 nM measured over 24 hrs by luminescence based analysis relative to control; type: cell-based
[17] = target: T2, Protein cereblon/CREB-binding protein (Homo sapiens); assay: PROTAC activity at CRBN/HiBiT-tagged CBP in human HAP1 cells assessed as total cumulative degradation by measuring AUC at 0.01 nM measured over 24 hrs by luminescence based analysis; type: cell-based
[18] = target: T2, Protein cereblon/CREB-binding protein (Homo sapiens); assay: PROTAC activity at CRBN/HiBiT-tagged CBP in human HAP1 cells assessed as induction of CBP degradation by measuring maximal efficacy at 0.1 nM measured over 24 hrs by luminescence based analysis relative to control; type: cell-based
[19] = target: T1, Protein cereblon/Histone acetyltransferase p300 (Homo sapiens); assay: PROTAC activity at CRBN/HiBiT-tagged p300 in human HAP1 cells assessed as total cumulative degradation by measuring AUC at 0.1 nM measured over 24 hrs by luminescence based analysis; type: cell-based
[20] = target: T1, Protein cereblon/Histone acetyltransferase p300 (Homo sapiens); assay: PROTAC activity at CRBN/HiBiT-tagged p300 in human HAP1 cells assessed as induction of p300 degradation by measuring degradation rate at 100 nM measured over 24 hrs by luminescence based analysis; type: cell-based
[21] = target: T1, Protein cereblon/Histone acetyltransferase p300 (Homo sapiens); assay: PROTAC activity at CRBN/HiBiT-tagged p300 in human HAP1 cells assessed as induction of p300 degradation by measuring maximal efficacy at 10 nM measured over 24 hrs by luminescence based analysis relative to control; type: cell-based
[22] = target: T1, Protein cereblon/Histone acetyltransferase p300 (Homo sapiens); assay: Binding affinity to recombinant CRBN/p300 bromodomain (unknown origin) assessed as ternary complex formation at 10 to 100 nM by Alphascreen-based proximity assay; type: protein assay; settings: dose 10-100 nM
[23] = target: T2, Protein cereblon/CREB-binding protein (Homo sapiens); assay: PROTAC activity at CRBN/HiBiT-tagged CBP in human HAP1 cells assessed as induction of CBP degradation by measuring degradation rate at 10 nM measured over 24 hrs by luminescence based analysis; type: cell-based
[24] = target: T1, Protein cereblon/Histone acetyltransferase p300 (Homo sapiens); assay: PROTAC activity at CRBN/HiBiT-tagged p300 in human HAP1 cells assessed as induction of p300 degradation by measuring maximal efficacy at 100 nM measured over 24 hrs by luminescence based analysis relative to control; type: cell-based
[25] = target: T1, Protein cereblon/Histone acetyltransferase p300 (Homo sapiens); assay: PROTAC activity at CRBN/HiBiT-tagged p300 in human HAP1 cells assessed as total cumulative degradation by measuring AUC at 1 nM measured over 24 hrs by luminescence based analysis; type: cell-based
[26] = target: T1, Protein cereblon/Histone acetyltransferase p300 (Homo sapiens); assay: PROTAC activity at CRBN/HiBiT-tagged p300 in human HAP1 cells assessed as total cumulative degradation by measuring AUC at 10 nM measured over 24 hrs by luminescence based analysis; type: cell-based
[27] = target: T2, Protein cereblon/CREB-binding protein (Homo sapiens); assay: PROTAC activity at CRBN/HiBiT-tagged CBP in human HAP1 cells assessed as induction of CBP degradation by measuring maximal efficacy at 10 nM measured over 24 hrs by luminescence based analysis relative to control; type: cell-based
[28] = target: T2, Protein cereblon/CREB-binding protein (Homo sapiens); assay: PROTAC activity at CRBN/HiBiT-tagged CBP in human HAP1 cells assessed as induction of CBP degradation by measuring degradation rate at 1000 nM measured over 24 hrs by luminescence based analysis; type: cell-based
[29] = target: T1, Protein cereblon/Histone acetyltransferase p300 (Homo sapiens); assay: PROTAC activity at CRBN/HiBiT-tagged p300 in human HAP1 cells assessed as total cumulative degradation by measuring AUC at 0.01 nM measured over 24 hrs by luminescence based analysis; type: cell-based
[30] = target: T2, Protein cereblon/CREB-binding protein (Homo sapiens); assay: PROTAC activity at CRBN/HiBiT-tagged CBP in human HAP1 cells assessed as induction of CBP degradation by measuring maximal efficacy at 1000 nM measured over 24 hrs by luminescence based analysis relative to control; type: cell-based
[31] = target: T2, Protein cereblon/CREB-binding protein (Homo sapiens); assay: PROTAC activity at CRBN/HiBiT-tagged CBP in human HAP1 cells assessed as total cumulative degradation by measuring AUC at 100 nM measured over 24 hrs by luminescence based analysis; type: cell-based
[32] = target: T2, Protein cereblon/CREB-binding protein (Homo sapiens); assay: PROTAC activity at CRBN/HiBiT-tagged CBP in human HAP1 cells assessed as induction of CBP degradation by measuring maximal efficacy at 1 nM measured over 24 hrs by luminescence based analysis relative to control; type: cell-based
[33] = target: T2, Protein cereblon/CREB-binding protein (Homo sapiens); assay: Binding affinity to recombinant CRBN/CBP bromodomain (unknown origin) assessed as ternary complex formation at 10 to 100 nM by Alphascreen-based proximity assay; type: protein assay; settings: dose 10-100 nM

SMILES | AUC [1] | AUC [2] | AUC [4] | Activity [5] [h⁻¹] | AUC [6] | AUC [7] | AUC [8] | Emax [9] [%] | Emax [10] [%] | Activity [11] [h⁻¹] | Activity [12] [h⁻¹] | Activity [13] [h⁻¹] | Activity [14] | Activity [15] | Emax [16] [%] | AUC [17] | AUC [19] | Activity [20] [h⁻¹] | Emax [21] [%] | Activity [22] | also measured
CNC(=O)N1CCc2c(c(N3CCCc4cc(-c5cnn(C)c5)c(C(F)F)cc43)nn2C2CCN(C(=O)CCOCCNc3ccc4c(c3)C(=O)N(C3CCC(=O)NC3=O)C4=O)CC2)C1 (stereo unspecified) | 16.5 | 23.7 | 10.3 | 0.35 | 15.6 | 19.5 | 9.4 | 65 | 44 | 0.19 | 0.2 | 0.09 | 0.26 h⁻¹ | inactive | 58 | 25.6 | 24.7 | 0.29 | 71 | Active | Activity [3]: 1.2 10^-4/hr; Emax [18]: 11%; Activity [23]: 0.31 h⁻¹; Emax [24]: 73%; AUC [25]: 16.1; AUC [26]: 9.2; Emax [27]: 68%; Activity [28]: 0.36 h⁻¹; AUC [29]: 27.3; Emax [30]: 64%; AUC [31]: 12.1; Emax [32]: 44%; Activity [33]: Active
CNC(=O)N1CCc2c(c(N3CCCc4cc(-c5cnn(C)c5)c(C(F)F)cc43)nn2C2CCN(C(=O)CCOCCOCCOCCOCCOCCOCCNc3ccc4c(c3)C(=O)N(C3CCC(=O)NC3=O)C4=O)CC2)C1 (stereo unspecified) | 6 | 24.2 | 8.1 | 0.49 | 17.8 | 6.6 | 5.2 | 86 | 32 | 0.79 | 0.19 | 0.46 | 0.27 h⁻¹ | inactive | 83 | 26.3 | 26.4 | 0.74 | 68 | Active | Emax [18]: 8.6%; Activity [23]: 0.68 h⁻¹; Emax [24]: 83%; AUC [25]: 18.6; AUC [26]: 9.3; Emax [27]: 72%; Activity [28]: 0.42 h⁻¹; AUC [29]: 27.3; Emax [30]: 81%; AUC [31]: 4.7; Emax [32]: 33%; Activity [33]: Active
CNC(=O)N1CCc2c(c(N3CCCc4cc(-c5cnn(CC(=O)NCCOCCNc6ccc7c(c6)C(=O)N(C6CCC(=O)NC6=O)C7=O)c5)c(C(F)F)cc43)nn2C2CCOCC2)C1 (stereo unspecified) | 13.5 | 25.5 | 16 | 0.22 | 22.6 | 15.1 | 10.4 | 63 | 18 | 0.22 | 0.004 | 0.14 | 1.5 10^-4/hr | inactive | 65 | 24.2 | 27.3 | 0.26 | 55 | Active | Activity [23]: 0.21 h⁻¹; Emax [24]: 69%; AUC [25]: 22.6; AUC [26]: 13.7; Emax [27]: 44%; Activity [28]: 0.12 h⁻¹; AUC [29]: 25.7; Emax [30]: 59%; AUC [31]: 12.1; Emax [32]: 20%; Activity [33]: Active
